Values after ≈ are worked out from the molar mass of the structure shown.
Tests used:
Assay type in all cases: cell-based
K. pneumoniae [1] = assay: Fosfomycin MIC, agar dilution method (CLSI); conditions: Klebsiella pneumoniae
Method: (§1) Antimicrobial susceptibility testing was performed according to Clinical and Laboratory Standard Institute guidelines [CLSI_M07 2018, CLSI_M100 2020]. In particular, colistin MICs were determined by the broth microdilution method, and fosfomycin MICs by the agar dilution method (with the addition of 25 μg/ml of glucose-6-phosphate, as recommended). […] and P. aeruginosa ATCC 27853 were used for quality control purposes.

A. baumannii [2] = assay: Fosfomycin MIC, agar dilution method (CLSI); conditions: Acinetobacter baumannii
Method: as §1

S. maltophilia [3] = assay: Fosfomycin MIC, agar dilution method (CLSI); conditions: Stenotrophomonas maltophilia
Method: as §1

P. aeruginosa [4] = assay: Fosfomycin MIC, agar dilution method (CLSI); conditions: Pseudomonas aeruginosa
Method: as §1

[5] = system: S. maltophilia preformed biofilms; assay: Biofilm susceptibility testing (Nunc-TSP lid system), MBEC; conditions: 24 h exposure
Method: (§2) Fosfomycin and colistin Minimum Biofilm Eradication Concentrations (MBECs) were determined as previously described (Macia et al, mentioned above), with MBEC being defined as the lowest concentration of antibiotic that prevented visible bacterial growth in the recovery medium.

[6] = system: K. pneumoniae preformed biofilms; assay: as above; conditions: 24 h exposure
Method: as §2

[7] = system: P. aeruginosa preformed biofilms; assay: as above; conditions: 24 h exposure
Method: as §2

[8] = system: A. baumannii preformed biofilms; assay: as above; conditions: 24 h exposure
Method: as §2

[9] = system: all tested strains (Gram-negative clinical isolates); assay: Fosfomycin MIC, agar dilution, summary over all tested strains
Method: as §1

[10] = system: all tested strains (Gram-negative clinical isolates); assay: Colistin MIC, broth microdilution, summary over all tested strains
Method: as §1

K. pneumoniae [11] = assay: Colistin MIC, broth microdilution method (CLSI)
Method: as §1

A. baumannii [12] = assay: Colistin MIC, broth microdilution method (CLSI)
Method: as §1

S. maltophilia [13] = assay: Colistin MIC, broth microdilution method (CLSI)
Method: as §1

P. aeruginosa [14] = assay: Colistin MIC, broth microdilution method (CLSI)
Method: as §1

[15] = system: all tested strains (preformed biofilms); assay: MBEC, summary over all tested strains; conditions: colistin
Method: as §2

[16] = strain FZ103, preformed biofilm
[17] = strain FZ105, preformed biofilm
[18] = strain FZ106, preformed biofilm
[19] = strain FZ108, preformed biofilm
[20] = strain FZ141, preformed biofilm
[21] = strain FZ139, preformed biofilm

Compound: C[C@@H]1O[C@@H]1P(=O)(O)O [Fosfomycin, fosfomycin]
- MIC (K. pneumoniae [1]; strain FZ80): 128 µg/mL (≈ 927 µM)
- MIC (K. pneumoniae [1]; strain FZ103): 32 µg/mL (≈ 232 µM)
- MIC (K. pneumoniae [1]; strain FZ105): 16 µg/mL (≈ 116 µM)
- MIC (K. pneumoniae [1]; strain FZ106): 64 µg/mL (≈ 464 µM)
- MIC (K. pneumoniae [1]; strain FZ108): 128 µg/mL (≈ 927 µM)
- MIC (K. pneumoniae [1]; strain FZ141): ≤ 0.25 µg/mL
- MIC (A. baumannii [2]; strain FZ1): 512 µg/mL (≈ 3710 µM)
- MIC (A. baumannii [2]; strain FZ2): > 1020 µg/mL
- MIC (A. baumannii [2]; strain FZ83): 64 µg/mL (≈ 464 µM)
- MIC (S. maltophilia [3]; strain FZ6): 64 µg/mL (≈ 464 µM)
- MIC (S. maltophilia [3]; strain FZ8): 128 µg/mL (≈ 927 µM)
- MIC (S. maltophilia [3]; strain FZ85): 32 µg/mL (≈ 232 µM)
- MIC (P. aeruginosa [4]; strain FZ18): 64 µg/mL (≈ 464 µM)
- MIC (P. aeruginosa [4]; strain FZ34): > 1020 µg/mL
- MIC (P. aeruginosa [4]; strain FZ45): > 1020 µg/mL
- MIC (P. aeruginosa [4]; strain FZ98): 64 µg/mL (≈ 464 µM)
- MIC (P. aeruginosa [4]; strain FZ139): 8 µg/mL (≈ 57.9 µM)
- Fosfomycin MBEC ([5]; strain FZ6, preformed biofilm): >1024 µg/mL
- Fosfomycin MBEC ([5]; strain FZ8, preformed biofilm): >1024 µg/mL
- Fosfomycin MBEC ([5]; strain FZ85, preformed biofilm): >1024 µg/mL
- Fosfomycin MBEC ([6]; strain FZ80, preformed biofilm): >1024 µg/mL
- Fosfomycin MBEC [6, 16]: >1024 µg/mL
- Fosfomycin MBEC [6, 17]: >1024 µg/mL
- Fosfomycin MBEC [6, 18]: >1024 µg/mL
- Fosfomycin MBEC [6, 19]: >1024 µg/mL
- Fosfomycin MBEC [6, 20]: 4 µg/mL
- Fosfomycin MBEC ([7]; strain FZ18, preformed biofilm): >1024 µg/mL
- Fosfomycin MBEC ([7]; strain FZ34, preformed biofilm): >1024 µg/mL
- Fosfomycin MBEC ([7]; strain FZ45, preformed biofilm): >1024 µg/mL
- Fosfomycin MBEC ([7]; strain FZ98, preformed biofilm): >1024 µg/mL
- Fosfomycin MBEC [7, 21]: >1024 µg/mL
- Fosfomycin MBEC ([8]; strain FZ1, preformed biofilm): >1024 µg/mL
- Fosfomycin MBEC ([8]; strain FZ2, preformed biofilm): >1024 µg/mL
- Fosfomycin MBEC ([8]; strain FZ83, preformed biofilm): >1024 µg/mL
- MIC50 [9]: 64 μs/m1
- MIC90 [9]: > 1024 μs/ml

Compound: colistin
- MIC50 [10]: 4 μs/ml
- MIC90 [10]: 32 μs/ml
- Colistin MIC (K. pneumoniae [11]; strain FZ80): 0.5 µg/mL
- Colistin MIC (K. pneumoniae [11]; strain FZ103): 8 µg/mL
- Colistin MIC (K. pneumoniae [11]; strain FZ105): 128 µg/mL
- Colistin MIC (K. pneumoniae [11]; strain FZ106): 32 µg/mL
- Colistin MIC (K. pneumoniae [11]; strain FZ108): 32 µg/mL
- Colistin MIC (K. pneumoniae [11]; strain FZ141): 2 µg/mL
- Colistin MIC (A. baumannii [12]; strain FZ1): 0.5 µg/mL
- Colistin MIC (A. baumannii [12]; strain FZ2): 1 µg/mL
- Colistin MIC (A. baumannii [12]; strain FZ83): 8 µg/mL
- Colistin MIC (S. maltophilia [13]; strain FZ6): 4 µg/mL
- Colistin MIC (S. maltophilia [13]; strain FZ8): 4 µg/mL
- Colistin MIC (S. maltophilia [13]; strain FZ85): 16 µg/mL
- Colistin MIC (P. aeruginosa [14]; strain FZ18): 4 µg/mL
- Colistin MIC (P. aeruginosa [14]; strain FZ34): 4 µg/mL
- Colistin MIC (P. aeruginosa [14]; strain FZ45): 4 µg/mL
- Colistin MIC (P. aeruginosa [14]; strain FZ98): 512 µg/mL
- Colistin MIC (P. aeruginosa [14]; strain FZ139): 4 µg/mL
- MBEC50 [15]: 512 µg/mL
- Colistin MBEC ([5]; strain FZ6, preformed biofilm): >1024 µg/mL
- Colistin MBEC ([5]; strain FZ8, preformed biofilm): >1024 µg/mL
- Colistin MBEC ([5]; strain FZ85, preformed biofilm): >1024 µg/mL
- Colistin MBEC ([6]; strain FZ80, preformed biofilm): 64 µg/mL
- Colistin MBEC [6, 16]: 64 µg/mL
- Colistin MBEC [6, 17]: 256 µg/mL
- Colistin MBEC [6, 18]: 256 µg/mL
- Colistin MBEC [6, 19]: >1024 µg/mL
- Colistin MBEC [6, 20]: 8 µg/mL
- Colistin MBEC ([7]; strain FZ18, preformed biofilm): >1024 µg/mL
- Colistin MBEC ([7]; strain FZ34, preformed biofilm): >1024 µg/mL
- Colistin MBEC ([7]; strain FZ45, preformed biofilm): >1024 µg/mL
- Colistin MBEC ([7]; strain FZ98, preformed biofilm): >1024 µg/mL
- Colistin MBEC [7, 21]: >1024 µg/mL
- Colistin MBEC ([8]; strain FZ1, preformed biofilm): 64 µg/mL
- Colistin MBEC ([8]; strain FZ2, preformed biofilm): >1024 µg/mL
- Colistin MBEC ([8]; strain FZ83, preformed biofilm): 128 µg/mL

— patent publication US20240148822A1, “ASSOCIATIONS OF FOSFOMYCIN AND COLISTIN FOR USE AGAINST BIOFILM-ASSOCIATED BACTERIAL INFECTIONS” (priority 2021, published 2024)
